Laboratory results: US20250360160A1, “NEW MEDICAL USE OF TAFOXIPARIN” (DILAFOR AB, priority 2022, published 2025)

Tested on: term pregnant, nulliparous women with an unripe cervix
Experiment: Clinical phase II trial PPL17 (Parts A and B), subcutaneous tafoxiparin vs placebo
Assay type: in vivo, human
Conditions: for proportion of women achieving spontaneous onset of labor: placebo 28.7%, FIG. 1; for Labor induced, number of subjects: onset of labor with intervention; for Labor induced with PGE-1, percent of subjects: placebo 10.2%; for Labor induced with amniotomy, percent of subjects: placebo 56.8%; for Labor induction with Balloon catheter, percent of subjects: placebo 58.0%; for Labor induced, percent of subjects: placebo 70.5%
Experimental: A clinical phase II trial is performed as a randomized, double-blind, placebo-controlled, parallel-group proof of concept study (Part A) with a conditional dose finding follow up study (Part B) to evaluate the efficacy, safety, tolerability and dose response of subcutaneously administered tafoxiparin as a supplement to induction therapy in term pregnant, nulliparous women with an unripe cervix. The study is performed in Sweden and Finland (PPL17), and an EMA (European Medicines Agency) description of the study can be found on the EU Clinical Trials Register web (www.clinicaltrialsregister.eu/ctr-search/search?query=PPL17).
A total of 170 term pregnant women are randomized to receive either 300 mg of tafoxiparin, or corresponding placebo (vehicle), administered subcutaneously every 24±3 hours and up to a total of 7 doses, or until partus (Part A).
In the dose finding follow up study (Part B), a total of 164 term pregnant women are randomized to receive either 75 or 150 mg of tafoxiparin administered subcutaneously every 24±3 hours […] and up to a total of 7 doses, or until partus.
To assess the efficacy of tafoxiparin on cervical ripening/cervical ripening rate, during and up to the first seven days of treatment, measured by Bishop score. All women must be examined to check the cervical state before enrollment.
Time from start of treatment to increase in Bishop score of ≥2 points or spontaneous onset of labor, whichever comes first. Time from start of treatment to increase in Bishop score of ≥3 points or spontaneous onset of labor, whichever comes first. Time from start of treatment to increase in Bishop score of ≥4 points or spontaneous onset of labor, whichever comes first.
Cervical ripening as measured by change from baseline to end of treatment in Bishop Score. Time from onset of labor to partus, where onset of labor is defined as last record of 4 cm cervical dilatation visualized in the partogram and progress of labor, or last record of 4 cm of cervical dilatation in combination with amniotomy and intravenous administration oxytocin.
Proportion of women with spontaneous onset of labor (Response group I).
Tafoxiparin/Placebo is supplied by Dilafor AB to the site as kits designed to constitute 300 mg of tafoxiparin or placebo for daily administration. Apart from the active substance, each ml of study drug will constitute 0.015 M phosphate buffer. The study medication kit for each patient will contain 8 doses consisting of 2 vials containing a minimum extractable volume of 1.6 ml of 150 mg/ml of tafoxiparin or placebo. One dose is a reserve dose in case a dose is rendered unusable. The investigational product should be administered subcutaneously every 24±3hours by the site staff for up to 7 doses, or until partus. At each dosing time 1.0 ml of the drug will be extracted from each of the 2 vials and injected as separate s.c. injections in the abdominal or hip region.
Tafoxiparin/Placebo is supplied by Dilafor AB to the site as kits designed to constitute 75 or 150 mg of tafoxiparin for daily administration. Apart from the active substance, each ml of study drug will constitute 0.015 M phosphate buffer. The study medication kit for each patient will contain 8 doses consisting of 2 vials for each injection occasion containing a minimum extractable volume of 1.6 ml of 150 mg/ml of tafoxiparin or placebo. For subjects receiving 75 mg of tafoxiparin, one vial will contain active substance and one containing placebo. For subjects receiving 150 mg of tafoxiparin, both vials will contain active substance. One dose is a reserve dose in case a dose is rendered unusable. The investigational product should be administered subcutaneously every 24±3 hours by the site staff for up to 7 doses, or until partus. At each dosing time, 0.5 ml of the drug will be extracted from each of the 2 vials and injected as separate s.c. injections in the abdominal or hip region. […]

[1] = 75 mg, n = 83, listed as tafoxiparin

tafoxiparin
proportion of women achieving spontaneous onset of labor (75 mg daily s.c., of 82 women, p 0.102): 40.2% | number of subjects (women) that reach spontaneous onset of labor (75 mg, Study day 1, n=33): 0 | percent of subjects (women) that reach spontaneous onset of labor (75 mg, Study day 1, n=33): (0%) | number of subjects (women) that reach spontaneous onset of labor (75 mg, Study day 2, n=33): 3 | percent of subjects (women) that reach spontaneous onset of labor (75 mg, Study day 2, n=33): (9%) | number of subjects (women) that reach spontaneous onset of labor (75 mg, Study day 3, n=33): 6 | percent of subjects (women) that reach spontaneous onset of labor (75 mg, Study day 3, n=33): (18%) | number of subjects (women) that reach spontaneous onset of labor (75 mg, Study day 4, n=33): 11 | percent of subjects (women) that reach spontaneous onset of labor (75 mg, Study day 4, n=33): (33%) | number of subjects (women) that reach spontaneous onset of labor (75 mg, Study day 5, n=33): 22 | percent of subjects (women) that reach spontaneous onset of labor (75 mg, Study day 5, n=33): (67%) | number of subjects (women) that reach spontaneous onset of labor (75 mg, Study day 6, n=33): 25 | percent of subjects (women) that reach spontaneous onset of labor (75 mg, Study day 6, n=33): (76%) | number of subjects (women) that reach spontaneous onset of labor (75 mg, Study day 7, n=33): 32 | percent of subjects (women) that reach spontaneous onset of labor (75 mg, Study day 7, n=33): (97%) | number of subjects (women) that reach spontaneous onset of labor (75 mg, Study day 8, n=33): 33 | percent of subjects (women) that reach spontaneous onset of labor (75 mg, Study day 8, n=33): (100%) | Fetal distress as indication for operative delivery (ODFD), number of patients (75 mg, n = 83): 16 | Labor induced with PGE-1, number of subjects (75 mg, n = 83): 7 | Labor induced with amniotomy, number of subjects (75 mg, n = 83): 46 | Labor induced with oxytocin, number of subjects (75 mg, n = 83): 34 | Labor induction with Balloon catheter, number of subjects (75 mg, n = 83): 35 | Labor induced, number of subjects (75 mg, n = 83): 48 | Labor induced with PGE-1, percent of subjects (75 mg, n = 83): (8.4%) | Labor induced with PGE-1, percent of subjects [1]: 8.4% | Fetal distress as indication for operative delivery (ODFD), percent of patients (75 mg, n = 83, placebo 22.7%): 19.3% | Percent of patients with operative delivery (75 mg, n = 83, placebo 45.5%): 38.6% | Labor induced with oxytocin, percent of subjects (75 mg, n = 83, placebo 54.5%): (41.0%) | Labor induced with oxytocin, percent of subjects (75 mg, n = 83, placebo 54.5%, listed as tafoxiparin): 41.0% | Labor induced with amniotomy, percent of subjects (75 mg, n = 83): (55.4%) | Labor induced with amniotomy, percent of subjects [1]: 55.4% | Labor induction with Balloon catheter, percent of subjects (75 mg, n = 83): (42.2%) | Labor induction with Balloon catheter, percent of subjects [1]: 42.2% | Labor induced, percent of subjects (75 mg, n = 83): (57.8%) | Labor induced, percent of subjects [1]: 57.8% | number of women reaching spontaneous onset of labor with uncomplicated delivery (75 mg, of 29 women): 22 women | proportion of women reaching spontaneous onset of labor with uncomplicated delivery (75 mg, of 29 women, placebo 54.5%): 75.9% | number of women needing instrumental delivery or caesarian section to reach partus (75 mg, of 33 women): 11 women | number reaching partus by vaginal delivery with no need for instrumental delivery nor caesarian section (75 mg, of 33 women): 22 women | number of women achieving spontaneous onset of labor (75 mg, of 82 women): 33 women | number of women needing instrumental delivery (75 mg, spontaneous onset of labor, of 29 women): 7 women | proportion reaching partus by vaginal delivery with no need for instrumental delivery nor caesarian section (75 mg, women with spontaneous onset of labor, of 33, placebo 48%, FIG. 5): 66.7% | proportion of women needing instrumental delivery or caesarian section to reach partus (75 mg, women with spontaneous onset of labor, of 33, placebo 52%, FIG. 5): 33.3% | proportion of women needing instrumental delivery (75 mg, women with spontaneous onset of labor, vaginal mode of partus, of 29, p=0.181, placebo 45.5%, FIG. 4): 24.1% | proportion of women achieving spontaneous onset of labor (150 mg daily s.c., of 85 women, p 0.039): 42.4% | number of subjects (women) that reach spontaneous onset of labor (150 mg, Study day 1, n=36): 0 | percent of subjects (women) that reach spontaneous onset of labor (150 mg, Study day 1, n=36): (0%) | number of subjects (women) that reach spontaneous onset of labor (150 mg, Study day 2, n=36): 4 | percent of subjects (women) that reach spontaneous onset of labor (150 mg, Study day 2, n=36): (11%) | number of subjects (women) that reach spontaneous onset of labor (150 mg, Study day 3, n=36): 15 | percent of subjects (women) that reach spontaneous onset of labor (150 mg, Study day 3, n=36): (42%) | number of subjects (women) that reach spontaneous onset of labor (150 mg, Study day 4, n=36): 19 | percent of subjects (women) that reach spontaneous onset of labor (150 mg, Study day 4, n=36): (53%) | number of subjects (women) that reach spontaneous onset of labor (150 mg, Study day 5, n=36): 26 | percent of subjects (women) that reach spontaneous onset of labor (150 mg, Study day 5, n=36): (72%) | number of subjects (women) that reach spontaneous onset of labor (150 mg, Study day 6, n=36): 30 | percent of subjects (women) that reach spontaneous onset of labor (150 mg, Study day 6, n=36): (83%) | number of subjects (women) that reach spontaneous onset of labor (150 mg, Study day 7, n=36): 34 | percent of subjects (women) that reach spontaneous onset of labor (150 mg, Study day 7, n=36): (94%) | number of subjects (women) that reach spontaneous onset of labor (150 mg, Study day 8, n=36): 35 | percent of subjects (women) that reach spontaneous onset of labor (150 mg, Study day 8, n=36): (97%) | number of subjects (women) that reach spontaneous onset of labor (150 mg, Study day 9, n=36): 36 | percent of subjects (women) that reach spontaneous onset of labor (150 mg, Study day 9, n=36): (100%) | Fetal distress as indication for operative delivery (ODFD), number of patients (150 mg, n = 85): 20 | Labor induced with PGE-1, number of subjects (150 mg, n = 85): 7 | Labor induced with amniotomy, number of subjects (150 mg, n = 85): 39 | Labor induced with oxytocin, number of subjects (150 mg, n = 85): 38 | Labor induction with Balloon catheter, number of subjects (150 mg, n = 85): 37 | Labor induced, number of subjects (150 mg, n = 85): 48 | Labor induced with PGE-1, percent of subjects (150 mg, n = 85): (8.2%)
